The values below come from US20100035822A1, “PROLINE-RICH PEPTIDES, PHARMACEUTICAL COMPOSITION, USE OF ONE OR MORE PEPTIDES AND METHOD OF TREATMENT” (priority 2006, published 2010).

The test system of data set [1] is renal nitric oxide synthase (NOS). Briefly: Activation of kidney NOS in mice (3H-arginine to 3H-citrulline conversion). The class given is in vivo, mouse. How it is done: Male Swiss albinos weighing 22-25 g were injected intraperitoneally with: (1) 50 μl 0.9% NaCl (basal level control), or with 0.9% NaCl supplemented with LPS (2 mg/Kg) (positive control); (2) SEQ ID NO 8 (0.21, 0.91, and 3.47 mg/Kg); (3) SEQ ID NO 8 (0.91 mg/Kg) injected into animals pre-treated via intraperitoneally with L-NAME (3 mg/Kg for 1 h); (4) SEQ ID NO 8 (0.91 mg/Kg) injected into animals pre-treated via intraperitoneally with HOE140 (10 μg/Kg for 1 h); (5) captopril (0.21, 0.91, and 3.47 mg/Kg). After 5, 15, 30, 60, 120, and 180 min, animals were killed, their kidneys removed and stored at −70° C. Animals of group 3 and 4 were killed 30 minutes after administration of the oligopeptide.
NOS activity was measured according to Bredt and Snyder [Bredt D S and Snyder S H. Isolation of nitric oxide synthetase, a calmodulin-requiring enzyme. Proc. Natl. Acad. Sci. USA, 87, 682-685, 1990], and is based on estimating the enzymatic activity of the conversion of L-arginine into L-citrulline using ^3H-arginine as a reference for the conversion.
The kidneys were minced in homogenizing buffer, pH 7.4 (20 mM HEPES, 0.32 M saccharose, 1 mM DTT, 0.1 mM EDTA, 1 mM PMSF), and sonicated. Protein dosage was performed according to Bradford (1976), followed by a chromatography step in a 300 μL Dowex 50WX8-400 column.
For the enzymatic assay, 80 μg total protein from each sample were incubated for 60 minutes at 37° C. in 200 μL buffer (30 mM HEPES, 1 mM EDTA, 1.25 mM CaCl2, 1 mM NADPH, 10 μg/mL calmodulin, 4 μM FAD, 4 μM FMN, 25 μM BH4, 120 nM arginine, 0.5 μCi ^3H-arginine). The reaction was stopped by the addition of 1 ml 20 mM HEPES, and incubation in ice bath. ^3H-citrulline was separated from ^3H-arginine by ion-exchange chromatography in a 300 μL Dowex 50WX8-400 column. Radioactivity of the eluates was measured in a beta-counter. After converting cpm (counts per minute) into dpm (disintegration per minute), the specific activity of the nitric oxide synthase (NOS) was calculated using the following equation: […]

Data set [2] concerns HUVEC cells (human umbilical vessel endothelial cells). Description: NO (nitrite) production in HUVEC cells. The note with it: 24 hours incubation. The class given is cell-based. How it is done: HUVEC cells (human umbilical vessel endothelial cells) were obtained from umbilical vessels, a gift from the University Hospital of the University of São Paulo. Vessels were washed externally with ethanol 96%, and after a diagonal cut at the end of the vessel, a catheter was introduced into the vessel vein, and attached to a three way valve. The vein was washed with 20 ml sterile saline, and the other end of the vessel was tied. One milliliter of a collagenase type IV solution was introduced (0.2 mg/ml/cm of umbilical vessel). The vessel was transferred to a Petri dish (10 cm^2), and incubated for 15 minutes at 37° C. Cells contained inside the cord were removed by massage, and transferred to a sterile tube. Bovine fetal serum was added to a final concentration of 10%, and the suspension was centrifuged for 10 minutes at 3.000 g at 4° C., and the cell pellet was resuspended in 2 ml complete medium (40% Medium 199, 40% DMEM, 18% bovine fetal serum, 1% L-glutamine, 1% penicillin/streptomycin). The cell suspension was transferred to a bottle, previously treated with a 1% gelatin solution (30 min at 4° C.), and 5 mL complete medium was added. The bottle was incubated at 37° C. at 5% CO2 atmosphere. […]
Cells were grown in Petri dishes to 80% confluence. […] The concentration of nitrite, derived from NO, was measured in the extracellular and the intracellular media.

The test system of another data set is normotensive Wistar rats. The class given is in vivo, rat. The note with it: 10 μmoles/Kg of body weight i.v.; 6 hours. The method, then: In vivo studies on the effect of peptides of the present invention were performed on adult male spontaneously hypertensive rats, and normotensive Wistar rats (Rattus novergicus) weighing 250 to 350 g. Animals had free access to chow (Nuvilab) and water, and were submitted to a light-dark cycle of 12 hours each. Procedures involving animals and their care were conducted according to Giles [Giles A. R. Guidelines for the use of animals in biomedical research. Thromb. Haemost. 58: 1078-1084, 1987].
Before drug administration, cardiovascular parameters of the rats were monitored for 40 minutes. Intravenous (I.V.) injection of Ang I (100 ng) was performed in bolus in a total volume of 0.1 mL. 60 minutes after the start of register, 71 nmoles/Kg body weight of peptides SEQ ID NO 8 or SEQ ID NO 4, or captopril were administered I.V. in a total volume of 0.5 mL of 0.9% NaCl solution. […] Arterial blood pressure and heart frequency were continuously monitored for 360 minutes.
Adult male Wistar normotensive rats, weighing between 250 and 350 g, were used in the experimental evaluation of the hypotensive effect of SEQ ID NO 8, as described in Example 12. An i.v. dose of 10 μmoles/Kg of body weight of peptide SEQ ID NO 8 was injected, and arterial blood pressure was monitored for 6 hours (results not shown).

As for `CC(CS)C(=O)N1CCC[C@@H]1C(=O)O` (stereo partly drawn) [captopril, D-3-mercapto-2-methyl-1-oxopropyl-L-proline, reference compound], the “renal NOS activity after injection” value in data set [1] (0.2-3.5 mg/Kg of body weight) is “No significant renal NOS activity”.

With <ENWPHPQIPP [SEQ ID NO 8], in data set [1] (approximately 1 mg/Kg body weight), the “activation of mouse renal NOS activity” value was “approximately 60%”. In addition, the “increase of NO generation” value in data set [2] is recorded as “approximately 100%”. Further, in the data set with normotensive Wistar rats, the “hypotensive effect in normotensive rats” value was “no significant hypotensive effect”.
